Measured values as given in paper PMC7175277, “Hydroxylamine Analogue of Agmatine: Magic Bullet for Arginine Decarboxylase” (Biomolecules, 2020).
Entries after “also recorded” stand apart in the source; their conditions may differ.

Legend:
[1] = biological target: E. coli ODC (Escherichia coli, UniProt P21169); experiment: E. coli ODC activity assay (HPLC of Put); assay type: biochemical
Protocol: The purification was performed using a modified procedure of earlier publication. E. coli strain DH5α was grown in Luria-Bertani broth at +37 °C with shaking (200 rpm) overnight. The cells were collected by centrifugation and the pellet was homogenized with Potter-Elvehjem in 10 volumes (w/v) of ice-cold 50 mM Tris-HCl pH 7.4, 1 mM DTT. The cell debris was removed by centrifugation at 12,000 g for 30 min at +4 °C. Solid (NH4)2SO4 was added to the supernatant, and the pellet precipitating between 39% and 53% saturation was separated. The precipitate was resuspended in ice-cold buffer containing 50 mM Tris-HCl pH 7.4 and 1 mM DTT and desalted by passage through Sephadex G-25 column (NAP-10 column, GE Healthcare). The protein concentration was measured with Bio-Rad protein reagent, and the partially purified enzyme preparation was mixed with 20% glycerol and aliquoted for storage at −80 °C.
The ADC reaction mixture contained 50 mM Tris-HCl pH 7.8, 4 mM MgCl2, 1 mM DTT, 1.0 or 0.1 mM PLP and 20 μg of partially purified enzyme preparation in a total volume of 162 μL. The ODC reaction mixture contained 50 mM Tris-HCl pH 7.8, 1 mM EDTA, 2.4 mM DTT, 0.1 mM PLP and 20 μg of partially purified enzyme preparation. […] After incubation for 30 min (ADC) or 20 min (ODC) at +40 °C, 20 μL of 50% sulphosalicylic acid containing 50 μM diaminoheptane (internal standard) was added and the samples were analyzed for the content of agmatine (ADC) and Put (ODC) with HPLC as described previously. The kinetic parameters and IC50 values were determined with the aid of GraphPad Prism version 5.03 using nonlinear regression analysis.

[2] = tested on: DU145 prostate cancer cells; experiment: Intracellular polyamine pools of DU145 cells; assay type: cell-based; conditions: 3 days
Protocol: DU145 prostate cancer cells were cultured in high-glucose Dulbecco’s Modified Eagle’s Medium supplemented with 10% heat-inactivated fetal bovine serum, 2 mM L-glutamine and 50 μg/mL gentamycin (all from Sigma-Aldrich). The cells were plated on 6-well plates and allowed to attach overnight. […] The cells were harvested, and the pellet was mixed with 150 μL of 5% sulphosalicylic acid containing 5 μM diaminoheptane (internal standard). Polyamine analysis was carried out as described previously.

[3] = biological target: T1, mouse kidney ODC (Mus musculus, UniProt P00860); experiment: Assay of mouse kidney ODC activity; assay type: biochemical; conditions: 0.4 mM L-Orn; 0.4 mM PLP
T1 construct: from tissue; host or cells: C57Bl/6J male mouse kidney, 12,000 g supernatant of the homogenate
T1 sequence (P00860 1-461): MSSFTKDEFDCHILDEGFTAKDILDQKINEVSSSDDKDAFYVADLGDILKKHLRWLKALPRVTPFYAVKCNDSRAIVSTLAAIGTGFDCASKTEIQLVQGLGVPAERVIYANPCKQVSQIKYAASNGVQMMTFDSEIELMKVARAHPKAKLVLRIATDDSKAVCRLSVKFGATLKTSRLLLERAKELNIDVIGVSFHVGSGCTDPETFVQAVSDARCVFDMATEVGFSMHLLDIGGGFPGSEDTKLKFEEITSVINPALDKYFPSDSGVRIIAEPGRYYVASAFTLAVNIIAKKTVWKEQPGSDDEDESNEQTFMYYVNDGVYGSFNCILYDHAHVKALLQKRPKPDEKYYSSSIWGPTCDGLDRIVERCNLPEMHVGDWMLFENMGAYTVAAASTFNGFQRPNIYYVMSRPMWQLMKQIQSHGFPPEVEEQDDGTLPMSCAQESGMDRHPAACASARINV
Protocol: C57Bl/6J male mouse kidney was homogenized with TissueLyzer (Qiagen) to 2 volumes of buffer containing 50 mM Tris-HCl pH 7.4, 1 mM DTT, 1 mM EDTA, 0.1% Triton X-100 and 1× Complete EDTA-free protease inhibitor cocktail (Roche) and centrifuged at 12,000 g for 30 min at +4 °C. Aliquots of the supernatant were mixed with 1–5000 μM of AO-Agm and the ODC assay was carried out as previously described. The reaction mixture contained 0.4 mM PLP and 0.4 mM L-Orn.

[4] = tested on: Acremonium chrysogenum wild-type (WT) ATCC 11550; experiment: Fungal growth inhibition (drop-dilution, CD agar), WT strain; assay type: cell-based; conditions: Hapsidospora chrysogena, ATCC11550, 336 h, 5 mM inhibitor, 14 days after inoculation on CD medium
Description: Two strains of Acremonium chrysogenum were used in this study: the wild-type (Brotzu) isolate ATCC 11550 (WT) and high-cephalosporin-yielding RNCM F-4081D (HY), derived from the WT [37]. The cultivation conditions were the same as previously described. The filamentous fungi were cultivated on agarized Czapek-Dox (CD) medium (30 g/L sucrose, 2 g/L NaNO3, 1 g/L K2HPO4, 0.5 g/L MgSO4×7 H2O, 0.5 g/L KCl, 0.01 g/L FeSO4×7 H2O, 20 g/L agar, pH 7.0–7.4). To determine the toxic effect of AO-Agm, APA, DFMA and DFMO on the growth of fungal cells the drop-dilution method was used with some modifications as described earlier. Cells were collected from agar slants and diluted with 0.9% NaCl solution up to OD600 = 0.5 (basic concentration), followed by serial tenfold dilutions with the same solution. […] The inoculated Petri dishes were incubated for 21 days at 26 °C. The inhibitory effects of the compounds were measured every three days after inoculation and evaluated by measuring the ratio of colony growth on agarized CD medium supplemented with AO-Agm, APA, DFMA, or DFMO to the growth in the control (agarized CD medium without any additions). The formula: growth inhibition % = [(Dc − Dt)/Dc] × 100, where Dc indicates the colony diameter in control set, and Dt indicates the colony diameter in the treatment set that was used to determine the percent of fungal growth inhibition. The data recorded were measured in triplicate and repeated at least twice.

[5] = AO-Agm 10 μM in the presence of SC (1 mM)
[6] = AO-Agm 100 μM in the presence of SC (1 mM)
[7] = AO-Agm 1 mM in the presence of SC (1 mM)

Chain of E. coli ODC (P21169 whole entry): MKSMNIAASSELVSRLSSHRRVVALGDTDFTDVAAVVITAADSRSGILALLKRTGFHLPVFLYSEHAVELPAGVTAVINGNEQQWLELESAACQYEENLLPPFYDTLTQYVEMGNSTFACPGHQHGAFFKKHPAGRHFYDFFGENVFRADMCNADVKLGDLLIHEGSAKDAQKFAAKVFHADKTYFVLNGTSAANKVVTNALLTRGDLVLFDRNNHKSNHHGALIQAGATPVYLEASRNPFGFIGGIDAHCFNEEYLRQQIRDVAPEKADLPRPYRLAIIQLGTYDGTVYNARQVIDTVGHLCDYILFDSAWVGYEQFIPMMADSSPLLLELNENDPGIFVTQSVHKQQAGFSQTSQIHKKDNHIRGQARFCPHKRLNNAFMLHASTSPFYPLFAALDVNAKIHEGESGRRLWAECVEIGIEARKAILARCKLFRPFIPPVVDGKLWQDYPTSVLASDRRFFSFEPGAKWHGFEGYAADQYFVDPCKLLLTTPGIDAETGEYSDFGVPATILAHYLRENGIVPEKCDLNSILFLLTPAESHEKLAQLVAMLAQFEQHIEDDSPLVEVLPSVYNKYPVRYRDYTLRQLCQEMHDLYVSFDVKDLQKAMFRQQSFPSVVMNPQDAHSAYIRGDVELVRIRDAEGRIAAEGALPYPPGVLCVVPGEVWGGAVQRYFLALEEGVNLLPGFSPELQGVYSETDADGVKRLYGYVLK

**Q.** `N=C(N)NCCCON` [AO-Agm, 1-aminooxy-3-guanidinopropane] was tested. Which “Potency towards E. coli ODC relative to E. coli ADC” value [1] did it give?
**A.** Its value is “almost two orders of magnitude less potent; also recorded: almost two orders of magnitude less efficient”.

**Q.** What about the Put [2, 5] of the same compound?
**A.** Its Put is 922 ± 60 pmol/mg Protein.

**Q.** And the Spd [2, 5]?
**A.** Its Spd is 6405 ± 61 pmol/mg Protein.

**Q.** What about the Spm [2, 5] of the same compound?
**A.** Its Spm is 3903 ± 72 pmol/mg Protein.

**Q.** And the Put ([2]; AO-Agm 10 μM, no SC)?
**A.** Its Put is 1515 ± 98 pmol/mg Protein.

**Q.** What about the Spd ([2]; AO-Agm 10 μM, no SC) of the same compound?
**A.** Its Spd is 7237 ± 73 pmol/mg Protein.

**Q.** And the Spm ([2]; AO-Agm 10 μM, no SC)?
**A.** Its Spm is 3782 ± 55 pmol/mg Protein.

**Q.** What about the Put [2, 6] of the same compound?
**A.** Its Put is 954 ± 115 pmol/mg Protein.

**Q.** What about the Spd [2, 6] of the same compound?
**A.** The Spd was 6280 ± 122 pmol/mg Protein.

**Q.** And the Spm [2, 6]?
**A.** Its Spm is 3621 ± 87 pmol/mg Protein.

**Q.** And the Put ([2]; AO-Agm 100 μM, no SC)?
**A.** Its Put is 1447 ± 43 pmol/mg Protein.

**Q.** What about the Spd ([2]; AO-Agm 100 μM, no SC) of the same compound?
**A.** Its Spd is 7047 ± 155 pmol/mg Protein.

**Q.** What about the Spm ([2]; AO-Agm 100 μM, no SC) of the same compound?
**A.** The Spm was 3682 ± 152 pmol/mg Protein.

**Q.** What about the Spd [2, 7] of the same compound?
**A.** Its Spd is 1074 ± 159 pmol/mg Protein.

**Q.** What about the Spm [2, 7] of the same compound?
**A.** The Spm was 2389 ± 105 pmol/mg Protein.

**Q.** What about the Put ([2]; AO-Agm 1 mM, no SC) of the same compound?
**A.** The Put was 1074 ± 30 pmol/mg Protein.

**Q.** What about the Spd ([2]; AO-Agm 1 mM, no SC) of the same compound?
**A.** Its Spd is 3609 ± 124 pmol/mg Protein.

**Q.** And the Spm ([2]; AO-Agm 1 mM, no SC)?
**A.** Its Spm is 3795 ± 98 pmol/mg Protein.

**Q.** And the IC50 [3]?
**A.** The IC50 was 5.3 ± 0.7 µM.

**Q.** And the inhibition at 5000 µM [4]?
**A.** The inhibition at 5000 µM was 34%.
